We go through three compounds from patent US20080242726A1 (priority 2004, published 2008).

The subject of one data set is serum cholesterol. The data set can be described thus: Effects on cholesterol levels in male baboons. The settings on record: 1.5 mg/kg for 12 days. The data set is classed as in vivo. An excerpt: (§1) The samples analyzed were sera taken on the day of first treatment before being given test article (day 0), after 12 days of treatment (day 12) and 7 days after the last treatment (end or wash-out).

Another data set relates to total serum testosterone. The data set can be described thus: Effects of Clomids on serum testosterone in male baboons. The data set is classed as in vivo. The settings on record: 1.5 mg/kg for 12 days.
Text: as §1

The next data set relates to total testosterone. The data set can be described thus: Comparison of Androxal to Androgel in hypogonadal men: total testosterone. The data set is classed as in vivo. The note with it: two weeks. The method, then: (§2) A placebo controlled challenge study was conducted at the Advanced Biological Research, Inc. (ABR) Clinical Research Center in Hackensack, N.J. to compare orally administered Androxal™ (trans-clomiphene) to Androgel® (testosterone) in hypogonadal men. Androgel® (Solvay Pharmaceuticals, Inc.) consists of a cream that administers exogenous testosterone in a transdermal matrix.
(§3) The study enrolled 62 hypogonadal men with testosterone levels less than 300 ng/dl (normal 298-1034 ng/dl) that were randomized into 6 different arms, three doses of Androxal™ (12.5 mg, 25 mg, and 50 mg), placebo, and both high and low doses of Androgel®. Half of the men in each of the Androxal™ and placebo arms were randomized into cohorts that underwent in-clinic sessions on days 1 and 14 to determine pharmacokinetic parameters for Androxal™ as well as cyclical changes in testosterone. The placebo and Androxal™ doses were administered in a double blind fashion. The Androgel® cream was administered in an open label fashion. Half of the Androgel® patients underwent in-clinic sessions similar to the other patients in the study. Following the two week drug exposure patients were followed for an additional seven to ten days to determine the status of their testosterone levels.

Another data set concerns serum prolactin (PRL). The data set can be described thus: Effects on serum prolactin (PRL) in male baboons. The data set is classed as in vivo. The settings on record: 1.5 mg/kg for 12 days.
Text: as §1

Text in data set [1]: as §1
Data set [2] can be described thus: Comparison of Androxal to Androgel in hypogonadal men: side effects. The data set is classed as in vivo. The settings on record: two week exposure, compared with placebo. The method, then:
as §2, §3

`CCN(CC)CCOc1ccc(C(=C(Cl)c2ccccc2)c2ccccc2)cc1` [Clomid, clomiphene]: the “trend of serum cholesterol” value with serum cholesterol is on record as “slight increase”. Further, the “effect on total serum testosterone” value in the data set with total serum testosterone was “more variable total testosterone levels”.

Turning to `CCN(CC)CCOc1ccc(/C(=C(/Cl)c2ccccc2)c2ccccc2)cc1` [Zuclomid, cis-clomiphene], the “trend of serum cholesterol” value with serum cholesterol is “tended to increase”. The “effect on total serum testosterone” value with total serum testosterone is “did not raise total serum testosterone to any extent”.

For the compound `CCN(CC)CCOc1ccc(/C(=C(\Cl)c2ccccc2)c2ccccc2)cc1` [Enclomid, trans-clomiphene], the “mean increase of testosterone from baseline” value with total testosterone (high dose 50 mg oral) stood at 294 ng/dL; with total testosterone (low dose 12.5 mg oral), 169 ng/dL; in the data set with total testosterone (mid dose 25 mg oral) it was 247 ng/dL. The “trend of serum cholesterol” value in the data set with serum cholesterol is listed as “tended to decrease”. Also, the “serum prolactin (PRL) during the study” value with serum prolactin (PRL) is reported as “decrease”. Moreover, the “effect on total serum testosterone” value in the data set on total serum testosterone was “significant increases”. Besides, in data set [1] (12-day treatment), the effect on platelets result is given as “clear effect”. In addition, the counts of eosinophiles result in data set [1] (male baboons) is given as “raising the counts”. Also, the side effects result in data set [2] is “no side effects”.
